Laboratory results as given in patent publication US10308628B2, “Heterocyclic compounds and methods for their use” (NOVARTIS AG, priority 2015, dated 2019).

Molecular target: human AT2 receptor (Homo sapiens (Human), UniProt P50052)
Assay: AT2 receptor binding assay ([125I]CGP 42112A displacement, CHO-K1 cell membranes)
Settings: membranes of CHO-K1 cells stably expressing human AT2 receptor; 0.05 nM [125I]CGP 42112A; Ki derived from IC50 by Cheng-Prussoff equation
Protocol: Reagents were purchased from Sigma-Aldrich, unless otherwise specified. Dialyzed fetal bovine serum (FBS) was from Life Technologies (cat. no. 10073772). Valiscreen® human angiotensin AT2 receptor cell line (cat. no. ES-070-C), [^125I]CGP 42112A (cat. no. NEX324025UC) and MicroScint™ 40 (cat. no. 6013641) were purchased from PerkinElmer. CGP 42112A (cat. no. 2569) and PD 123,319 ditrifluoroacetate (cat. no. 1361) were from Tocris Biosciences.
6. […] Compound Preparation
Compounds were prepared from 10 mM stock solutions in 100% DMSO. Dilutions were made using electronic multichannel pipettes.
Controls • Total binding (high control) was determined in the absence of unlabelled ligand. A solution of 10% DMSO in assay buffer was prepared. • Non-specific binding (low control) was determined in the presence of a vast excess (10 μM) of PD 123,319. 1 mM stock solution of PD 123,319 in water was diluted […] with 10% DMSO in assay buffer.
15 μL compound solution was transferred to duplicate wells of assay plate. 5 compounds were tested per plate. 15 μL control solutions were transferred to columns 1 and 12 of assay plate.

Sequence of human AT2 receptor (P50052 whole entry): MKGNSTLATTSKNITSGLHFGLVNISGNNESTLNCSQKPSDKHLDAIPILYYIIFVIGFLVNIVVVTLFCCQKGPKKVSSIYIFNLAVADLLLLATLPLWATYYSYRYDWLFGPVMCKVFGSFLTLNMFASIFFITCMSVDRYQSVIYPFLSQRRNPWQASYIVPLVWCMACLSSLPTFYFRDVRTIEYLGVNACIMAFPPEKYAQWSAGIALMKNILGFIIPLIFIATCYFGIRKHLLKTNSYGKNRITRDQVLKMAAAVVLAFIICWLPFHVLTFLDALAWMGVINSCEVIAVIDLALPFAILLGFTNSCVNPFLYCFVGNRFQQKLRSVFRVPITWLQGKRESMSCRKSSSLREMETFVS

Compound	Ki [nM]
O=C(O)[C@@H]1C[C@H](N2CCCOc3cc(F)c(F)cc32)CCN1C(=O)C(c1ccccc1)c1ccccc1 [Compound 1, (2S,4R)-4-(7,8-Difluoro-3,4-dihydrobenzo[b][1,4]oxazepin-5 (2H)-yl)-1-(2,2-diphenylacetyl)piperidine-2-carboxylic acid]	7
O=C(O)[C@@H]1C[C@H](N2CCCOc3cc(F)ccc32)CCN1C(=O)C(c1ccccc1)c1ccccc1 [Compound 2, (2S,4R)-1-(2,2-Diphenylacetyl)-4-(8-fluoro-3,4 dihydrobenzo[b][1,4]oxazepin-5(2H)-yl)piperidine-2-carboxylic acid]	9
COc1ccc2c(c1)CCCCN2[C@@H]1CCN(C(=O)C(c2ccccc2)c2ccccc2)[C@H](C(=O)O)C1 [Compound 5, (2S,4R)-1-(2,2-Diphenylacetyl)-4-(7-methoxy-2,3,4,5-tetrahydro-1H-benzo[b]azepin-1-yl)piperidine-2-carboxylic acid]	9
O=C(O)[C@@H]1C[C@H](N2CCCOc3ccc(F)cc32)CCN1C(=O)C(c1ccccc1)c1ccccc1 [Compound 3, (2S,4R)-1-(2,2-Diphenylacetyl)-4-(7-fluoro-3,4dihydrobenzo[b][1,4]oxazepin-5(2H)-yl)piperidine-2-carboxylic acid]	17
O=C(O)[C@@H]1C[C@H](N2CCCOc3ccccc32)CCN1C(=O)C(c1ccccc1)c1ccccc1 [Compound 4, (2S,4R)-4-(3,4-Dihydrobenzo[b][1,4]oxazepin-5(2H)-yl)-1-(2,2-diphenylacetyl)piperidine-2-carboxylic acid]	15
